According to article PMC8482776 (ACS Omega, 2021):
≈ marks a conversion by molar mass, not a printed value. Where “and” joins values, the source holds several entries; their conditions need not be identical. Equal entries are not always repeated.

Legend:
T. rubrum (PTCC 5143) = experiment: Microdilution MIC90, strain K; assay type: cell-based, Trichophyton rubrum; conditions: filamentous fungi, 48 h at 37 °C, triplicate
[1] = system: C. tropicalis (PTCC 5028); experiment: Microdilution MIC90, strain E; assay type: cell-based; conditions: 24 h
Asp. niger (PTCC 5154) = experiment: Microdilution MIC90, strain I; assay type: cell-based, Aspergillus niger; conditions: Aspergillus niger, PTCC5154, 48 h, filamentous fungi, 48 h at 37 °C, triplicate
Asp. terreus (PTCC 5023) = experiment: Microdilution MIC90, strain J; assay type: cell-based, Aspergillus terreus; conditions: Aspergillus terreus, PTCC5023, 48 h, filamentous fungi, 48 h at 37 °C, triplicate
[2] = system: Asp. fumigatus (PTCC 5009); experiment: Microdilution MIC90, strain H; assay type: cell-based; conditions: Aspergillus fumigatus, PTCC5009, 48 h, filamentous fungi, 48 h at 37 °C, triplicate
[3] = system: T. mentagrophytes (PTCC 5054); experiment: Microdilution MIC90, strain M; assay type: cell-based; conditions: Trichophyton mentagrophytes, PTCC5054, 48 h
[4] = system: T. schoenleinii (PTCC 5221); experiment: Microdilution MIC90, strain N; assay type: cell-based; conditions: Trichophyton schoenleinii, PTCC5221, 48 h
C. krusei (ATCC 6258) = experiment: Microdilution MIC90, strain B; assay type: cell-based; conditions: for MIC90: yeast, 24 h at 37 °C, triplicate
M. canis (PTCC 5069) = experiment: Microdilution MIC90, strain O; assay type: cell-based; conditions: Microsporum canis, PTCC5069, 48 h
[5] = system: Asp. flavus (ATCC 204304); experiment: Microdilution MIC90, strain G; assay type: cell-based, Aspergillus flavus; conditions: filamentous fungi, 48 h at 37 °C, triplicate
[6] = system: Microsporum gypseum (PTCC 5070); experiment: Microdilution MIC90, strain L; assay type: cell-based; conditions: filamentous fungi, 48 h at 37 °C, triplicate
[7] = system: C. parapsilosis (ATCC 22019); experiment: Microdilution MIC90, strain D; assay type: cell-based; conditions: 24 h
C. glabrata (ATCC 90030) = experiment: Microdilution MIC90, strain C; assay type: cell-based; conditions: 24 h, yeast, 24 h at 37 °C, triplicate
[8] = system: Asp. nidulans (PTCC 5014); experiment: Microdilution MIC90, strain F; assay type: cell-based, Aspergillus nidulans; conditions: filamentous fungi, 48 h at 37 °C, triplicate
C. albicans (ATCC 10231) [9] = experiment: Microdilution MIC90, strain A; assay type: cell-based; conditions: strain A; for MIC90: yeast, 24 h at 37 °C, triplicate
C. albicans (ATCC 10231) [10] = experiment: Murine model of systemic candidiasis; assay type: in vivo; conditions: neutropenic mice (n = 5), 15 mg/kg oral gavage, left kidney tissue
[11] = Trichophyton rubrum, PTCC5143, 48 h
[12] = Aspergillus flavus, ATCC204304, 48 h
[13] = Aspergillus nidulans, PTCC5014, 48 h

O=C(Nc1ccccc1)Nc1nnc(SCC(O)(Cn2cncn2)c2ccc(F)cc2F)s1 (centres unmarked) [Compound 8o, 1-(5-((2-(2,4-Difluorophenyl)-2-hydroxy-3-(1H-1,2,4-triazol-1-yl)propyl)thio)-1,3,4-thiadiazol-2-yl)-3-phenylurea]
MIC90 (T. rubrum (PTCC 5143); [11]): 2 to 4 µg/mL (≈ 4.09 to 8.17 µM) | MIC90 (T. rubrum (PTCC 5143)): 4 μg·mL^–1 | MIC90 [1]: 16 µg/mL (≈ 32.7 µM) | MIC90 (Asp. niger (PTCC 5154)): 32 µg/mL (≈ 65.4 µM) | MIC90 (Asp. terreus (PTCC 5023)): 8 µg/mL (≈ 16.3 µM) | MIC90 [2]: 32 µg/mL (≈ 65.4 µM) | MIC90 [3]: 16 µg/mL (≈ 32.7 µM) | MIC90 [4]: 16 µg/mL (≈ 32.7 µM) | MIC90 (C. krusei (ATCC 6258); 24 h): 32 µg/mL (≈ 65.4 µM) | MIC90 (M. canis (PTCC 5069)): 16 µg/mL (≈ 32.7 µM) | MIC90 [5, 12]: 8 µg/mL (≈ 16.3 µM) | MIC90 [6]: 4 μg·mL^–1 | MIC90 [7]: 8 µg/mL (≈ 16.3 µM) | MIC90 (C. glabrata (ATCC 90030)): 32 µg/mL (≈ 65.4 µM) | MIC90 [8, 13]: 2 to 4 µg/mL (≈ 4.09 to 8.17 µM) | MIC90 [8]: 2 μg·mL^–1

Cc1ccc(NC(=O)Nc2nnc(SCC(O)(Cn3cncn3)c3ccc(F)cc3F)s2)cc1 (centres unmarked) [Compound 8e, 1-(5-((2-(2,4-Difluorophenyl)-2-hydroxy-3-(1H-1,2,4-triazol-1-yl)propyl)thio)-1,3,4-thiadiazol-2-yl)-3-(p-tolyl)urea]
MIC90 (T. rubrum (PTCC 5143); [11]): 8 µg/mL (≈ 15.9 µM) | MIC90 [1]: 16 µg/mL (≈ 31.8 µM) | MIC90 (C. albicans (ATCC 10231) [9]; 24 h): 0.5 µg/mL (≈ 0.993 µM) | fold greater potency than that of FLC (C. albicans (ATCC 10231) [9]; from MIC values): 32 fold | MIC90 (C. albicans (ATCC 10231) [9]): 1 μg·mL^–1 | MIC90 (Asp. niger (PTCC 5154)): 16 µg/mL (≈ 31.8 µM) | MIC90 (Asp. terreus (PTCC 5023)): 16 µg/mL (≈ 31.8 µM) | MIC90 [2]: 16 µg/mL (≈ 31.8 µM) | MIC90 [3]: 32 µg/mL (≈ 63.5 µM) | MIC90 [4]: 8 µg/mL (≈ 15.9 µM) | MIC90 (C. krusei (ATCC 6258); 24 h): 0.5 µg/mL (≈ 0.993 µM) | fold greater potency than that of FLC (C. krusei (ATCC 6258); from MIC values): 32 fold | MIC90 (C. krusei (ATCC 6258)): 1 μg·mL^–1 | MIC90 (M. canis (PTCC 5069)): 16 µg/mL (≈ 31.8 µM) | MIC90 [5, 12]: 8 µg/mL (≈ 15.9 µM) | MIC90 [6]: 2 μg·mL^–1 | MIC90 [7]: 8 µg/mL (≈ 15.9 µM) | MIC90 [8, 13]: 2 to 4 µg/mL (≈ 3.97 to 7.94 µM) | MIC90 [8]: 4 μg·mL^–1

C[C@@H](c1ncncc1F)[C@](O)(Cn1cncn1)c1ccc(F)cc1F [VOR, voriconazole, reference compound]
kidney fungal burden, CFU/g (mean ± SD) (C. albicans (ATCC 10231) [10]): 318 CFU/g and 318 ± 66.5 ^b CFU/g

Cc1ccc(NC(=O)Nc2nnc(SCC(O)(Cn3cncn3)c3ccc(F)cc3F)s2)cc1Cl (centres unmarked) [Compound 8r, 1-(3-Chloro-4-methylphenyl)-3-(5-((2-(2,4-difluorophenyl)-2-hydroxy-3-(1H-1,2,4-triazol-1-yl)propyl)thio)-1,3,4-thiadiazol-2-yl)urea]
MIC90 (T. rubrum (PTCC 5143); [11]): 2 to 4 µg/mL (≈ 3.72 to 7.43 µM) | MIC90 (T. rubrum (PTCC 5143)): 4 μg·mL^–1 | MIC90 [1]: 64 µg/mL (≈ 119 µM) | MIC90 (C. albicans (ATCC 10231) [9]; 24 h): 64 µg/mL (≈ 119 µM) | MIC90 (Asp. niger (PTCC 5154)): 32 µg/mL (≈ 59.5 µM) | MIC90 (Asp. terreus (PTCC 5023)): 16 µg/mL (≈ 29.7 µM) | MIC90 [2]: 32 µg/mL (≈ 59.5 µM) | MIC90 [3]: 16 µg/mL (≈ 29.7 µM) | MIC90 [4]: 32 µg/mL (≈ 59.5 µM) | MIC90 (C. krusei (ATCC 6258); 24 h): 32 µg/mL (≈ 59.5 µM) | MIC90 (M. canis (PTCC 5069)): 32 µg/mL (≈ 59.5 µM) | MIC90 [5, 12]: 2 to 4 µg/mL (≈ 3.72 to 7.43 µM) | MIC90 [5]: 4 μg·mL^–1 | MIC90 [6]: 4 μg·mL^–1 | MIC90 [7]: 16 µg/mL (≈ 29.7 µM) | MIC90 (C. glabrata (ATCC 90030)): 32 µg/mL (≈ 59.5 µM) | MIC90 [8, 13]: 8 µg/mL (≈ 14.9 µM)
